Numbered stars: 1 amine (or outer) side, 2 acyl side, 3 side chain; on linkers, the order of the positions; unused ones are H or OH. Square brackets hold non-standard residues; d marks the D form. Side chains are listed from the residue outwards. Peptide text beside a SMILES is read from it. * marks the point of attachment. Phe(4-CH2NH2) = NCc1ccc(C[C@H](N)C(=O)O)cc1; C18 diacid = O=C(O)CCCCCCCCCCCCCCCCC(=O)*; γGlu = O=C(O)[C@H](CCC(=O)[*:2])N[*:1]; Met(O2) = CS(=O)(=O)CC[C@H](N)C(=O)O; PEG5 = NCCOCCOCCOCCOCCOCCC(=O)O; αMeD = C[C@](N)(CC(=O)O)C(=O)O; AEEA = NCCOCCOCC(=O)O; Aib = CC(C)(N)C(=O)O
Molecular target: T1, human GCGR (Homo sapiens, UniProt P47871)
T1 construct: expressed in transfected cells; growth medium holds Blasticidin and Hygromycin
T1 sequence (P47871 26-477): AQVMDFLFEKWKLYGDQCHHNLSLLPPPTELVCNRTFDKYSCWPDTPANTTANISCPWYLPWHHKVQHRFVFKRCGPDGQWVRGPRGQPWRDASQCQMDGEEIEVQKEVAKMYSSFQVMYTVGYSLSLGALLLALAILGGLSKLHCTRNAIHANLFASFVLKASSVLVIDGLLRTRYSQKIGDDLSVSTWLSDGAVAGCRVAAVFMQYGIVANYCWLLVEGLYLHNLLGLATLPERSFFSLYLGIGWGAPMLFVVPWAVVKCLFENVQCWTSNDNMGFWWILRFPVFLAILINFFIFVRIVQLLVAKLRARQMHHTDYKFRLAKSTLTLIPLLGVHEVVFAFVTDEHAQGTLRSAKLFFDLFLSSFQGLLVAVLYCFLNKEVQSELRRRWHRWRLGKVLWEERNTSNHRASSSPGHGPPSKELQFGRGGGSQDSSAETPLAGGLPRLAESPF
Experiment: cAMP activity assay at the Glucagon receptor (GCGR)
Format: cell-based
Details: for hGCGR/hGLP1R (hTone): ratio of GCGR EC50 to GLP1R EC50; for EC50: cells expressing human GCGR, cAMP production, buffer with or without 20% human serum (not stated which), read-out: GCGR EC50 human
Description: Activity of the peptides at the Glucagon receptor (GCGR) and GLP-1 receptor (GLP1R) was measured in a cAMP activity assay.
GCG/GLP-1 receptor co-agonist peptides were dissolved in 100% DMSO (dimethyl sulfoxide) and serially diluted to generate 10 point titrations. The peptide solutions were then transferred into 384-well assay plates (150 nL/well). Assay ready frozen cells expressing human GLP1R or human GCGR were suspended in growth media consisting of DMEM medium (GIBCO®), 10% FBS (GIBCO®), 1×NEAA(GIBCO®), 1×P/S (GIBCO®), 10 ug/mL Blasticidin (GIBCO®) and 200 μg/mL Hygromycin (GIBCO®). […] The cell suspensions (15 μL) were then added to the assay plates containing the peptide solutions (30,000 cells/well for human GCGR; 10,000 cells/well for human GLP1R). The cells were incubated for 1 hour at room temperature in the dark. Production of cAMP was determined using HitHunter™ cAMPXS kits (DiscoverX) following manufacturer protocol. The plates were incubated for overnight at room temperature in the dark. Luminescence was measured using an EnVision Multilabel plate reader (Perkin Elmer). Native GLP-1 and Glucagon (Bachem) are used as control peptides. EC50 values were calculated using uses a 4 parameter logistic fit based on the Levenberg-Marquardt algorithm.

Compound | hGCGR/hGLP1R (hTone) | EC50 [nM]
CC(C)C[C@H](NC(=O)[C@H](CC(C)C)NC(=O)[C@H](CCCCN)NC(=O)[C@H](CO)NC(=O)[C@H](Cc1ccc(O)cc1)NC(=O)[C@H](CC(=O)O)NC(=O)[C@H](CO)NC(=O)[C@@H](NC(=O)[C@H](Cc1ccccc1)NC(=O)[C@@H](NC(=O)CNC(=O)[C@H](CCC(N)=O)NC(=O)C(C)(C)NC(=O)[C@@H](N)Cc1c[nH]cn1)[C@@H](C)O)[C@@H](C)O)C(=O)N[C@@H](CC(=O)O)C(=O)N[C@@H](C)C(=O)N[C@@H](CCCNC(=N)N)C(=O)N[C@@H](C)C(=O)N[C@@H](C)C(=O)N[C@@H](CCCCNC(=O)COCCOCCNC(=O)COCCOCCNC(=O)CC[C@H](NC(=O)CCCCCCCCCCCCCCCCC(=O)O)C(=O)O)C(=O)N[C@@H](CC(=O)O)C(=O)N[C@@H](Cc1ccccc1)C(=O)N[C@H](C(=O)N[C@@H](CCC(N)=O)C(=O)N[C@@H](Cc1c[nH]c2ccccc12)C(=O)N[C@@H](CC(C)C)C(=O)N[C@@H](CCS(C)(=O)=O)C(=O)N[C@@H](CC(=O)O)C(=O)N[C@H](C(N)=O)[C@@H](C)O)C(C)C [TP597] (H-H[Aib]QGTFTSDYSKLLDARAAK([AEEA-AEEA-γGlu-C18 diacid])DFVQWL[Met(O2)]DT-NH2; N-terminus assumed) | 1.2 | –
CC(C)C[C@H](NC(=O)[C@H](Cc1ccc(O)cc1)NC(=O)[C@H](CCCCN)NC(=O)[C@H](CO)NC(=O)[C@H](Cc1ccc(O)cc1)NC(=O)[C@H](CC(=O)O)NC(=O)[C@H](CO)NC(=O)[C@@H](NC(=O)[C@H](Cc1ccccc1)NC(=O)[C@@H](NC(=O)CNC(=O)[C@H](CCC(N)=O)NC(=O)C(C)(C)NC(=O)[C@@H](N)Cc1c[nH]cn1)[C@@H](C)O)[C@@H](C)O)C(=O)N[C@@H](CC(=O)O)C(=O)N[C@@H](C)C(=O)N[C@@H](CCCCN)C(=O)N[C@@H](C)C(=O)N[C@@H](C)C(=O)N[C@@H](CCCCNC(=O)COCCOCCNC(=O)COCCOCCNC(=O)CC[C@H](NC(=O)CCCCCCCCCCCCCCCCC(=O)O)C(=O)O)C(=O)N[C@@H](CC(=O)O)C(=O)N[C@@H](Cc1ccccc1)C(=O)N[C@H](C(=O)N[C@@H](CCC(N)=O)C(=O)N[C@@H](Cc1c[nH]c2ccccc12)C(=O)N[C@@H](CC(C)C)C(=O)N[C@@H](CCS(C)(=O)=O)C(=O)N[C@@H](CC(=O)O)C(=O)N[C@H](C(N)=O)[C@@H](C)O)C(C)C [TP598] (H-H[Aib]QGTFTSDYSKYLDAKAAK([AEEA-AEEA-γGlu-C18 diacid])DFVQWL[Met(O2)]DT-NH2; N-terminus assumed) | 2.3 | –
CC(C)C[C@H](NC(=O)[C@H](Cc1ccc(O)cc1)NC(=O)[C@H](CCCCN)NC(=O)[C@H](CO)NC(=O)[C@H](Cc1ccc(O)cc1)NC(=O)[C@H](CC(=O)O)NC(=O)[C@H](CO)NC(=O)[C@@H](NC(=O)[C@H](Cc1ccccc1)NC(=O)[C@@H](NC(=O)CNC(=O)[C@H](CCC(N)=O)NC(=O)C(C)(C)NC(=O)[C@@H](N)Cc1c[nH]cn1)[C@@H](C)O)[C@@H](C)O)C(=O)N[C@@H](CC(=O)O)C(=O)N[C@@H](C)C(=O)N[C@@H](CCCNC(=N)N)C(=O)N[C@@H](C)C(=O)N[C@@H](C)C(=O)N[C@@H](CCC(N)=O)C(=O)N[C@@H](CC(=O)O)C(=O)N[C@@H](Cc1ccccc1)C(=O)N[C@H](C(=O)N[C@@H](CCC(N)=O)C(=O)N[C@@H](Cc1c[nH]c2ccccc12)C(=O)N[C@@H](CC(C)C)C(=O)N[C@@H](CCS(C)(=O)=O)C(=O)N[C@@H](Cc1ccc(CNC(=O)COCCOCCNC(=O)COCCOCCNC(=O)CC[C@H](NC(=O)CCCCCCCCCCCCCCCCC(=O)O)C(=O)O)cc1)C(=O)N[C@H](C(N)=O)[C@@H](C)O)C(C)C [TP604] (H-H[Aib]QGTFTSDYSKYLDARAAQDFVQWL[Met(O2)][Phe(4-CH2NH2)]([AEEA-AEEA-γGlu-C18 diacid])T-NH2; N-terminus assumed) | 2.3 | –
CC(C)C[C@H](NC(=O)[C@H](Cc1ccc(O)cc1)NC(=O)[C@H](CCCCN)NC(=O)[C@H](CO)NC(=O)[C@H](Cc1ccc(O)cc1)NC(=O)[C@H](CC(=O)O)NC(=O)[C@H](CO)NC(=O)[C@@H](NC(=O)[C@H](Cc1ccccc1)NC(=O)[C@@H](NC(=O)CNC(=O)[C@H](CCC(N)=O)NC(=O)C(C)(C)NC(=O)[C@@H](N)Cc1c[nH]cn1)[C@@H](C)O)[C@@H](C)O)C(=O)N[C@@H](CC(=O)O)C(=O)N[C@@H](C)C(=O)N[C@@H](CCCNC(=N)N)C(=O)N[C@@H](C)C(=O)N[C@@H](C)C(=O)N[C@@H](CCC(N)=O)C(=O)N[C@@H](CCCCNC(=O)CCOCCOCCOCCOCCOCCNC(=O)CC[C@H](NC(=O)CCCCCCCCCCCCCCCCC(=O)O)C(=O)O)C(=O)N[C@@H](Cc1ccccc1)C(=O)N[C@H](C(=O)N[C@@H](CCC(N)=O)C(=O)N[C@@H](Cc1c[nH]c2ccccc12)C(=O)N[C@@H](CC(C)C)C(=O)N[C@@H](CCS(C)(=O)=O)C(=O)N[C@@](C)(CC(=O)O)C(=O)N[C@H](C(N)=O)[C@@H](C)O)C(C)C [TP608] (H-H[Aib]QGTFTSDYSKYLDARAAQK([PEG5-γGlu-C18 diacid])FVQWL[Met(O2)][αMeD]T-NH2) | 0.9 | –
CC(C)C[C@H](NC(=O)[C@H](Cc1ccc(O)cc1)NC(=O)[C@H](CCCCN)NC(=O)[C@H](CO)NC(=O)[C@H](Cc1ccc(O)cc1)NC(=O)[C@H](CC(=O)O)NC(=O)[C@H](CO)NC(=O)[C@@H](NC(=O)[C@H](Cc1ccccc1)NC(=O)[C@@H](NC(=O)CNC(=O)[C@H](CCC(N)=O)NC(=O)C(C)(C)NC(=O)[C@@H](N)Cc1c[nH]cn1)[C@@H](C)O)[C@@H](C)O)C(=O)N[C@@H](CC(=O)O)C(=O)N[C@@H](C)C(=O)N[C@@H](CCCNC(=N)N)C(=O)N[C@@H](C)C(=O)N[C@@H](C)C(=O)N[C@@H](CCC(N)=O)C(=O)N[C@@H](Cc1ccc(CNC(=O)COCCOCCNC(=O)COCCOCCNC(=O)CC[C@H](NC(=O)CCCCCCCCCCCCCCCCC(=O)O)C(=O)O)cc1)C(=O)N[C@@H](Cc1ccccc1)C(=O)N[C@H](C(=O)N[C@@H](CCC(N)=O)C(=O)N[C@@H](Cc1c[nH]c2ccccc12)C(=O)N[C@@H](CC(C)C)C(=O)N[C@@H](CC(C)C)C(=O)N[C@@](C)(CC(=O)O)C(=O)N[C@H](C(N)=O)[C@@H](C)O)C(C)C [TP609] (H-H[Aib]QGTFTSDYSKYLDARAAQ[Phe(4-CH2NH2)]([AEEA-AEEA-γGlu-C18 diacid])FVQWLL[αMeD]T-NH2; N-terminus assumed) | 0.9 | –
CC(C)C[C@H](NC(=O)[C@H](Cc1ccc(O)cc1)NC(=O)[C@H](CCCCN)NC(=O)[C@H](CO)NC(=O)[C@H](Cc1ccc(O)cc1)NC(=O)[C@H](CC(=O)O)NC(=O)[C@H](CO)NC(=O)[C@@H](NC(=O)[C@H](Cc1ccccc1)NC(=O)[C@@H](NC(=O)CNC(=O)[C@H](CCC(N)=O)NC(=O)C(C)(C)NC(=O)[C@@H](N)Cc1c[nH]cn1)[C@@H](C)O)[C@@H](C)O)C(=O)N[C@@H](CC(=O)O)C(=O)N[C@@H](CCC(=O)O)C(=O)N[C@@H](CCCNC(=N)N)C(=O)N[C@@H](C)C(=O)N[C@@H](C)C(=O)N[C@@H](CCCCNC(=O)COCCOCCNC(=O)COCCOCCNC(=O)CC[C@H](NC(=O)CCCCCCCCCCCCCCCCC(=O)O)C(=O)O)C(=O)N[C@@H](CC(=O)O)C(=O)N[C@@H](Cc1ccccc1)C(=O)N[C@H](C(=O)N[C@@H](CCC(N)=O)C(=O)N[C@@H](Cc1c[nH]c2ccccc12)C(=O)N[C@@H](CC(C)C)C(=O)N[C@@H](CCS(C)(=O)=O)C(=O)N[C@@](C)(CC(=O)O)C(=O)N[C@H](C(N)=O)[C@@H](C)O)C(C)C [TP613] (H-H[Aib]QGTFTSDYSKYLDERAAK([AEEA-AEEA-γGlu-C18 diacid])DFVQWL[Met(O2)][αMeD]T-NH2) | >6 | > 5
CC(C)C[C@H](NC(=O)[C@H](Cc1ccc(O)cc1)NC(=O)[C@H](CCCCN)NC(=O)[C@H](CO)NC(=O)[C@H](Cc1ccc(O)cc1)NC(=O)[C@H](CC(=O)O)NC(=O)[C@H](CO)NC(=O)[C@@H](NC(=O)[C@H](Cc1ccccc1)NC(=O)[C@@H](NC(=O)CNC(=O)[C@H](CCC(N)=O)NC(=O)C(C)(C)NC(=O)[C@@H](N)Cc1c[nH]cn1)[C@@H](C)O)[C@@H](C)O)C(=O)N[C@@H](CC(=O)O)C(=O)N[C@@H](C)C(=O)N[C@@H](CCCNC(=N)N)C(=O)N[C@@H](C)C(=O)N[C@@H](C)C(=O)N[C@@H](CCCCNC(=O)COCCOCCNC(=O)CC[C@H](NC(=O)CCCCCCCCCCCCCCCCC(=O)O)C(=O)O)C(=O)N[C@@H](CC(=O)O)C(=O)N[C@@H](Cc1ccccc1)C(=O)N[C@H](C(=O)N[C@@H](CCC(N)=O)C(=O)N[C@@H](Cc1c[nH]c2ccccc12)C(=O)N[C@@H](CC(C)C)C(=O)N[C@@H](CCS(C)(=O)=O)C(=O)N[C@@](C)(CC(=O)O)C(=O)N[C@H](C(N)=O)[C@@H](C)O)C(C)C [TP628] (H-H[Aib]QGTFTSDYSKYLDARAAK([AEEA-γGlu-C18 diacid])DFVQWL[Met(O2)][αMeD]T-NH2; N-terminus assumed) | 0.6 | 0.86

Source: patent publication US11566057B2, “Long-acting co-agonists of the glucagon and GLP-1 receptors” (Merck Sharp & Dohme Corp., priority 2017, dated 2023)
